Results reported in ChEMBL document CHEMBL5291721, “A preclinical secondary pharmacology resource illuminates target-adverse drug reaction associations of marketed drugs” (Nat Commun, 2023).

What was measured:
[1] = biological target: T1, Muscarinic acetylcholine receptor M1 (Homo sapiens, UniProt P11229); type: functional
T1 sequence (P11229 whole entry): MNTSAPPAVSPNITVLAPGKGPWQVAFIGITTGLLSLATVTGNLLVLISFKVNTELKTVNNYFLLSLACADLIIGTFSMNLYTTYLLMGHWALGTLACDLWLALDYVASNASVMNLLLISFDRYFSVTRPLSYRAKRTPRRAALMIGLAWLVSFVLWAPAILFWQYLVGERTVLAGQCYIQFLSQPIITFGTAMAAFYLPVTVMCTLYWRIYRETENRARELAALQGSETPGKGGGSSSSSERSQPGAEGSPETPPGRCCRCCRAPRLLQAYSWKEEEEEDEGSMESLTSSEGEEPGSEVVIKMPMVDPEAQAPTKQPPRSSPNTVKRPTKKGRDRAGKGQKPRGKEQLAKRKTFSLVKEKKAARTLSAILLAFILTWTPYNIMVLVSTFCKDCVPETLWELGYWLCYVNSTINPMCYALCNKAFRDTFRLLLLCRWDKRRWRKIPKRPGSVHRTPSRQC

[2] = biological target: T2, Muscarinic acetylcholine receptor M2 (Homo sapiens, UniProt P08172); type: functional, cell-based
T2 sequence (P08172 whole entry): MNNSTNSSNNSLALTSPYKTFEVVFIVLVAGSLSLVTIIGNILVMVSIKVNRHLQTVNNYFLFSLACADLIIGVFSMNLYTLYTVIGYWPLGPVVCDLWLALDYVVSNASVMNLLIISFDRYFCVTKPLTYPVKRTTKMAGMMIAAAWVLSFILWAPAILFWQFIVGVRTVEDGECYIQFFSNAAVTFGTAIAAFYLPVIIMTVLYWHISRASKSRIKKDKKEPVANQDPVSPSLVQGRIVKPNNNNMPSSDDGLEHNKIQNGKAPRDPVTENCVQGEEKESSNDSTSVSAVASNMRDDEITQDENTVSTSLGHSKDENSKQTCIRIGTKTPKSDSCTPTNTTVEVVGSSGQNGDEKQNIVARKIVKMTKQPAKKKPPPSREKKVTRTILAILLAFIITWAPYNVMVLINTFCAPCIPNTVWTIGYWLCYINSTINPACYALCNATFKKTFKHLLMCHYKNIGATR

[3] = biological target: Muscarinic acetylcholine receptor M3 (Homo sapiens, UniProt P20309)
[4] = biological target: 3',5'-cyclic-AMP phosphodiesterase 4A (Homo sapiens, UniProt P27815); type: functional
Acetylcholinesterase = Acetylcholinesterase (Homo sapiens, UniProt P22303); type: functional
[5] = biological target: Prostaglandin G/H synthase 1 (Homo sapiens, UniProt P23219); type: functional
[6] = biological target: Glutamate receptor ionotropic, NMDA 1 (Rattus norvegicus, UniProt P35439)
[7] = biological target: T3, 5-hydroxytryptamine receptor 1A (Homo sapiens, UniProt P08908)
T3 sequence (P08908 whole entry): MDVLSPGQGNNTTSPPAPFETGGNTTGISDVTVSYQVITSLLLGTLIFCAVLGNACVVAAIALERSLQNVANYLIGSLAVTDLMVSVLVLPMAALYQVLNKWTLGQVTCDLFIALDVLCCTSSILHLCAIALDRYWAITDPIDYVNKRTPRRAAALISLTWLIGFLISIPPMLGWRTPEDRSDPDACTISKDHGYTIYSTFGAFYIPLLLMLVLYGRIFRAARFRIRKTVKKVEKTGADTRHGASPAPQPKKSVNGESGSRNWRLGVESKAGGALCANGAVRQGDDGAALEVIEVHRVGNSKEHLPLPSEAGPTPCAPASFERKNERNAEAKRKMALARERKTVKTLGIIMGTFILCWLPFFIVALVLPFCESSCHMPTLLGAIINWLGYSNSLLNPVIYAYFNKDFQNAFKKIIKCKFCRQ

Thromboxane A2 receptor = biological target: T4, Thromboxane A2 receptor (Homo sapiens, UniProt P21731); type: functional, cell-based
T4 sequence (P21731 whole entry): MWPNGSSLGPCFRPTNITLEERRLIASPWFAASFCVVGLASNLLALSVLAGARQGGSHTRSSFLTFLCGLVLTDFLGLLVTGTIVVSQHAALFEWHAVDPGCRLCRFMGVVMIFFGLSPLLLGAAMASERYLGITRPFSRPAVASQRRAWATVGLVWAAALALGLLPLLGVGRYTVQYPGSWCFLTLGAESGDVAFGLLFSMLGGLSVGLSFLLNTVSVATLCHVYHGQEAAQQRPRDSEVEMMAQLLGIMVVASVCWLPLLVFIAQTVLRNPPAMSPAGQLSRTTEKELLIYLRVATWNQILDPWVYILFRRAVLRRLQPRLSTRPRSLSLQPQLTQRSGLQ

[8] = biological target: cGMP-inhibited 3',5'-cyclic phosphodiesterase 3A (Homo sapiens, UniProt Q14432); type: functional
Glucocorticoid receptor = biological target: T5, Glucocorticoid receptor (Homo sapiens, UniProt P04150)
T5 sequence (P04150 whole entry): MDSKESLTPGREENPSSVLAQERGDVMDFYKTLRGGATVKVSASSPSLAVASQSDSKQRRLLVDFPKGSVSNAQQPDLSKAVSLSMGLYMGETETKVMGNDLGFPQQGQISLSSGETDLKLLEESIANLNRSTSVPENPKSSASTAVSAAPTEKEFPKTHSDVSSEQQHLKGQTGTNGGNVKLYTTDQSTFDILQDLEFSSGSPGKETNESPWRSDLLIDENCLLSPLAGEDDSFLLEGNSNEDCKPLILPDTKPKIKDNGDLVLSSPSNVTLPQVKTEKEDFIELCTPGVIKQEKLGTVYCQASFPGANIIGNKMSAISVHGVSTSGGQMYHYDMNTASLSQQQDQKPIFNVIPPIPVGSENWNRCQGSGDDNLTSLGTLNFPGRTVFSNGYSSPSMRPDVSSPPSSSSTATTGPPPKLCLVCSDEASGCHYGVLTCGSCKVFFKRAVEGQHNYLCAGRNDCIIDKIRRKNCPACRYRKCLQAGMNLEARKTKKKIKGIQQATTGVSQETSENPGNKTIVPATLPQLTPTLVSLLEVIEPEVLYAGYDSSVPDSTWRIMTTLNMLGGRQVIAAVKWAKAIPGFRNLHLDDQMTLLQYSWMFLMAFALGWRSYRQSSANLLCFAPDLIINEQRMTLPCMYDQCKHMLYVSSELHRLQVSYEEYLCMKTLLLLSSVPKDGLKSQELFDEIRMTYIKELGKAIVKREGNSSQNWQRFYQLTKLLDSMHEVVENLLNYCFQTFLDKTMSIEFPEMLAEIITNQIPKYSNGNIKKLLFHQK
Further: assay procedure not described here.

cGMP-inhibited 3',5'-cyclic phosphodiesterase 3A, sequence (Q14432 whole entry): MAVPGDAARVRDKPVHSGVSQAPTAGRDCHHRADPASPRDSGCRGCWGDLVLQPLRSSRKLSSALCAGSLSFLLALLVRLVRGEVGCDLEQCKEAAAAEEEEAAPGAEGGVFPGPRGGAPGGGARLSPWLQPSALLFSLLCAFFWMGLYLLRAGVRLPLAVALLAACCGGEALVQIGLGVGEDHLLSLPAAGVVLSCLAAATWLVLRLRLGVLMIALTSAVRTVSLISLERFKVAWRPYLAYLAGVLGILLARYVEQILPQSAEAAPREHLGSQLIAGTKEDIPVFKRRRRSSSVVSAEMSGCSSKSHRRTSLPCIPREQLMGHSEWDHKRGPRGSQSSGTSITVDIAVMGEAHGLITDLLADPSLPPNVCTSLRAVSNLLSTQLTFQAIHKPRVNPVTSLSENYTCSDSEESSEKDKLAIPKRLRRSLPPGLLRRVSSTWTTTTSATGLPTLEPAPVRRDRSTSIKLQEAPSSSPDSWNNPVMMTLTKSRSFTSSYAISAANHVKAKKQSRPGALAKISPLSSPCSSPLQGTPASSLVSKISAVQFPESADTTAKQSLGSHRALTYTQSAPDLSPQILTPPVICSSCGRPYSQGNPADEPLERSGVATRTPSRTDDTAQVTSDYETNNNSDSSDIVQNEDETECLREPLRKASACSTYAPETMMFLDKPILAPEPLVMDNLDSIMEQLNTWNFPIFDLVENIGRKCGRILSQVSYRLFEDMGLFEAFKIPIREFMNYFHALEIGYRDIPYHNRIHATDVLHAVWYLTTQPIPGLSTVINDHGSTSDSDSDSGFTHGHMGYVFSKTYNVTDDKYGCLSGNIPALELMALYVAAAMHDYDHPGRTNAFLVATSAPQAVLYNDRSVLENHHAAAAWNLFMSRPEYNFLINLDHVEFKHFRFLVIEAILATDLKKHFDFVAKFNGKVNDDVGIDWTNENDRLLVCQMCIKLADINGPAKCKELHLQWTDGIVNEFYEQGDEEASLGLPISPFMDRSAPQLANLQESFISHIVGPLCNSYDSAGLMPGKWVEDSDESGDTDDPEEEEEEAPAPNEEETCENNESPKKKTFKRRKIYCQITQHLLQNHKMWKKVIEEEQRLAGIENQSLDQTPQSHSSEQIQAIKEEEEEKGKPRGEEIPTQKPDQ
Prostaglandin G/H synthase 1, sequence (P23219 whole entry): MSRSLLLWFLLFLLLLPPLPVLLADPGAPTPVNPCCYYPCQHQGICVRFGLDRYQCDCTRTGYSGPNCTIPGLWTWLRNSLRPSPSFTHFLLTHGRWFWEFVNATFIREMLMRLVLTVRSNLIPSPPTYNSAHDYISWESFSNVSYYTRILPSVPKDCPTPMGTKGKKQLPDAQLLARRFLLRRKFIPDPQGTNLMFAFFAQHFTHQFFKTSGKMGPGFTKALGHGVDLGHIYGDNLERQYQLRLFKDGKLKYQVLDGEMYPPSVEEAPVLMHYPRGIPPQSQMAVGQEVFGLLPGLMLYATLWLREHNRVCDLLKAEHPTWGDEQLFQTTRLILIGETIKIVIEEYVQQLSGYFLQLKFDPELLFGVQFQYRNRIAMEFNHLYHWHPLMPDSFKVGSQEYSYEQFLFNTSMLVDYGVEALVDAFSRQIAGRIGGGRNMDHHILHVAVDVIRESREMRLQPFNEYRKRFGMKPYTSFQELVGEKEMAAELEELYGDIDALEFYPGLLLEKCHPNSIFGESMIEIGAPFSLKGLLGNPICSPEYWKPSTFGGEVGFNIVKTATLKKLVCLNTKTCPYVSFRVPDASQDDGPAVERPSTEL
Acetylcholinesterase, sequence (P22303 whole entry): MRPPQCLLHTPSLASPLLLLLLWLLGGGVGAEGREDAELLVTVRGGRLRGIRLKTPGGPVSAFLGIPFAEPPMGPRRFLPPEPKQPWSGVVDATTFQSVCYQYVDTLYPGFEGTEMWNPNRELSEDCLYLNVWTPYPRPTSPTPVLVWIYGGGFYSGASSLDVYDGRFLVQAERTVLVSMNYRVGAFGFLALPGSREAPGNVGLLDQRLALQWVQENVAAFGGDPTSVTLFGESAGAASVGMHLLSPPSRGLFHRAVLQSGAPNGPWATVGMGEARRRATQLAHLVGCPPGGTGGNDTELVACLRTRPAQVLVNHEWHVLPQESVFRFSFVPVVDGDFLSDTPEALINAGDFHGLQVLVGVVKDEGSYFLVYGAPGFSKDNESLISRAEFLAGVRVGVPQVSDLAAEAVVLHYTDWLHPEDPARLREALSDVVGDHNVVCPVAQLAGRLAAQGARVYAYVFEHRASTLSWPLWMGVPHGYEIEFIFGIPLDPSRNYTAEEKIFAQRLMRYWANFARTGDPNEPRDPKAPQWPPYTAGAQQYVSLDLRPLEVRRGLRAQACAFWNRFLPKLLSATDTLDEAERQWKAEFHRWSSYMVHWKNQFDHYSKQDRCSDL
Muscarinic acetylcholine receptor M3, sequence (P20309 whole entry): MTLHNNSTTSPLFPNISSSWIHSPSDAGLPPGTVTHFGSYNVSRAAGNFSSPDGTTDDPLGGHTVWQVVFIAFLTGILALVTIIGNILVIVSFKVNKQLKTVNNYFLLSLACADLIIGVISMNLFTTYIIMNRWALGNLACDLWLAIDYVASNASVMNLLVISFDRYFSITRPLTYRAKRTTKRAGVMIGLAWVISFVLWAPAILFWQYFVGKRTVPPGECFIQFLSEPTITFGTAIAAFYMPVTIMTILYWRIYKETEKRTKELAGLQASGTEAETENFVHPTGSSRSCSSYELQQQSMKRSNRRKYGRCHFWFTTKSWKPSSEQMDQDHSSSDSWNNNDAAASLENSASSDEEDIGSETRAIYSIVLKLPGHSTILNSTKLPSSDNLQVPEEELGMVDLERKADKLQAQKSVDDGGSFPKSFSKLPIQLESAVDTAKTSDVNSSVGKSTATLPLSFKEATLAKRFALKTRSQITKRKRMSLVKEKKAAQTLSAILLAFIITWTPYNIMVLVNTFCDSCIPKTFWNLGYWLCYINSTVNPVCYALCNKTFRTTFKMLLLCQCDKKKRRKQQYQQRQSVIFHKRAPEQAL
3',5'-cyclic-AMP phosphodiesterase 4A, sequence (P27815 whole entry): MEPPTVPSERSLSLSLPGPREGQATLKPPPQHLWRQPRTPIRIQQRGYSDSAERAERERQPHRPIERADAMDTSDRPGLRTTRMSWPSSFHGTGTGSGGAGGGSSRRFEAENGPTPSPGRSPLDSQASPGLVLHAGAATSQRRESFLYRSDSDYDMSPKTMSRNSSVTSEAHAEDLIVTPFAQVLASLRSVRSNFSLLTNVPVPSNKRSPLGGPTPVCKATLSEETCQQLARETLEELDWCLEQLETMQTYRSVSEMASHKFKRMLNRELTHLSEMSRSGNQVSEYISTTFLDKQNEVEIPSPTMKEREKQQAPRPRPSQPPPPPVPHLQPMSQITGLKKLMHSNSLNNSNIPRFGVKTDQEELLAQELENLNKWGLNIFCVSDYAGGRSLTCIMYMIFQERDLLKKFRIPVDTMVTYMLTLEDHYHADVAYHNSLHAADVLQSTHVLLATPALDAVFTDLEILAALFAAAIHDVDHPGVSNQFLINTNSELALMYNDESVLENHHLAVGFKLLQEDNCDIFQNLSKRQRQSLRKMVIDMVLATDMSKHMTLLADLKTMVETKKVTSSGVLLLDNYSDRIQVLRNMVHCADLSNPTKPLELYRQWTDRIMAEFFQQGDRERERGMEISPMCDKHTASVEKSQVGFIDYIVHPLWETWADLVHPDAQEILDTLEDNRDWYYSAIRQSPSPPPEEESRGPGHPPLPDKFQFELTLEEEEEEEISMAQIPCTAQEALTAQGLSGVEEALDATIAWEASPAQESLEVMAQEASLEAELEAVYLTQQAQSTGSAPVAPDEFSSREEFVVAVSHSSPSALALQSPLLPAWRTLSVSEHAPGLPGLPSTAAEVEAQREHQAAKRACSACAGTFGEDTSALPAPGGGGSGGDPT

Compound	AC50 [1]	AC50 [2]	AC50 [3]	AC50 [6]	AC50 (Glucocorticoid receptor)	AC50 [4]	AC50 (Acetylcholinesterase)	AC50 [5]	AC50 [7]	AC50 (Thromboxane A2 receptor)	AC50 [8]
CC(C)Cc1ccc(CC(=O)O)cc1 [IBUFENAC]	> 30 µM	> 30 µM	> 30 µM								
CCc1ccc(CCOc2ccc(CC3SC(=O)NC3=O)cc2)nc1 (centres undefined) [PIOGLITAZONE]		> 10 µM		> 10 µM	> 30 µM	> 10 µM	> 30 µM	> 30 µM	> 30 µM	> 30 µM	> 30 µM
CC(=O)c1ccc2c(c1)N(CCCN1CCN(CCO)CC1)c1ccccc1S2 [ACETOPHENAZINE]	> 30 µM	> 10 µM	> 30 µM								
CS(=O)(=O)c1ccc([C@@H](O)[C@@H](CO)NC(=O)C(Cl)Cl)cc1 [THIAMPHENICOL]		> 30 µM		> 30 µM	> 30 µM	> 30 µM	> 30 µM	> 30 µM	> 30 µM	> 30 µM	> 30 µM
CN1CCCC(n2nc(Cc3ccc(Cl)cc3)c3ccccc3c2=O)CC1 (centres undefined) [AZELASTINE]			> 30 µM								
C(=N\NC1=NCCN1)/c1c2ccccc2c(/C=N/NC2=NCCN2)c2ccccc12 [BISANTRENE]						> 30 µM	3.88 µM	> 30 µM	1.65 µM	> 30 µM	> 30 µM
O=C(NC[C@H]1CN(c2ccc(N3CCOCC3=O)cc2)C(=O)O1)c1ccc(Cl)s1 [RIVAROXABAN]	> 30 µM	> 30 µM	> 30 µM	> 30 µM		> 30 µM	> 30 µM	> 30 µM	> 30 µM	> 30 µM	> 30 µM
N[C@@H](C(=O)N[C@@H]1C(=O)N2C(C(=O)O)=C(Cl)CS[C@H]12)c1ccccc1 [CEFACLOR ANHYDROUS]	> 30 µM	> 30 µM	> 30 µM	> 30 µM	> 30 µM						
CC(O)CO (centres undefined) [PROPYLENE GLYCOL]						> 30 µM	> 30 µM	> 30 µM	> 30 µM	> 30 µM	> 30 µM
CCC(=O)O[C@H]1[C@H](O[C@@H]2[C@@H](C)[C@H](O[C@H]3C[C@@](C)(OC)[C@@H](O)[C@H](C)O3)[C@@H](C)C(=O)O[C@H](CC)[C@@](C)(O)[C@H](O)[C@@H](C)C(=O)[C@H](C)C[C@@]2(C)O)O[C@H](C)C[C@@H]1N(C)C [ERYTHROMYCIN PROPIONATE]						> 30 µM	> 30 µM	> 30 µM	15.1 µM	> 30 µM	> 30 µM
CCOC(=O)N[C@@H]1CC[C@@H]2[C@@H](C1)C[C@H]1C(=O)O[C@H](C)[C@H]1[C@H]2/C=C/c1ccc(-c2cccc(F)c2)cn1 [VORAPAXAR]						> 30 µM	> 30 µM	> 30 µM	> 30 µM	> 30 µM	> 30 µM

Second part, led by results:

AC50 [1]	AC50 [2]	AC50 [3]	AC50 [6]	AC50 (Glucocorticoid receptor)	Compound	AC50 [4]	AC50 (Acetylcholinesterase)	AC50 [5]	AC50 [7]	AC50 (Thromboxane A2 receptor)	AC50 [8]
> 10 µM		> 10 µM	> 10 µM		CCc1nn(CCCN2CCN(c3cccc(Cl)c3)CC2)c(=O)n1CCOc1ccccc1 [NEFAZODONE]						
> 30 µM	> 30 µM	> 30 µM	> 30 µM	> 30 µM	CCCS(=O)(=O)Nc1ccc(F)c(C(=O)c2c[nH]c3ncc(-c4ccc(Cl)cc4)cc23)c1F [VEMURAFENIB]						
> 30 µM	> 30 µM	> 30 µM	> 30 µM	> 30 µM	CNC(=O)c1cc(Oc2ccc(NC(=O)Nc3ccc(Cl)c(C(F)(F)F)c3)cc2)ccn1 [SORAFENIB]						
> 30 µM		> 30 µM	> 30 µM	> 30 µM	NC(=O)c1ncn([C@@H]2O[C@H](CO)[C@@H](O)[C@H]2O)c1O [MIZORIBINE]						
> 30 µM	> 30 µM	> 30 µM			OCc1cc([C@@H](O)CNCCCCCCOCCOCc2c(Cl)cccc2Cl)ccc1O [VILANTEROL]						
